Measurements: patent publication US10874683B2, “N4-hydroxycytidine and derivatives and anti-viral uses related thereto” (Emory University, priority 2016, dated 2020)
In brackets after ≈: the same amount, converted by molar mass. Like-named read-outs stand apart in the source and are kept apart here.

What was measured:
Chikungunya virus = Chikungunya virus (MOI 0.5) viral inhibition in U2OS cell line; type: cell-based; conditions: for inhibition at 10 µM: read-out: Viral Inh. 10 uM; for inhibition at 50 µM: read-out: Viral Inh. 50 uM
U2OS cell line = assay: Cell viability, U2OS cell line (Chikungunya screen)
[1] = Cytotoxicity in HG23 cells (Norovirus screen); type: cell-based; conditions: human
Norovirus GT1 = Norovirus GT1 antiviral screening in HG23 cells; type: cell-based
in vitro = conditions: African green monkey
SARS Coronavirus Orbani = assay: microbe, parasite or virus in culture; type: cell-based; conditions: Severe acute respiratory syndrome coronavirus, Vero 76
VERO = assay: Cell viability, VERO (MERV screen); type: cell-based
MERV = MERV (MOI 0.4) viral inhibition in VERO; type: cell-based; conditions: for inhibition at 10 µM: read-out: Viral Inh. 10 uM; for inhibition at 50 µM: read-out: Viral Inh. 50 uM
VEEV [2] = assay: microbe, parasite or virus in culture; type: cell-based; conditions: Venezuelan equine encephalitis virus, HeLa; for inhibition at 10 µM: read-out: Viral Inh. 10 uM; for inhibition at 50 µM: read-out: Viral Inh. 50 uM
VEEV [3] = assay: microbe, parasite or virus in culture; type: cell-based; conditions: Venezuelan equine encephalitis virus, Astrocyte; for inhibition at 10 µM: read-out: Viral Inh. 10 uM; for inhibition at 50 µM: read-out: Viral Inh. 50 uM

For `O=c1nc(NO)ccn1[C@@H]1O[C@H](CO)[C@H](O)C1O` (stereo partly drawn) [drawing 81], the inhibition at 10 µM (Chikungunya virus) was 80%, the inhibition at 50 µM (Chikungunya virus) was 100% and the “Cell Viability 10 uM” value (U2OS cell line) was 97% ± 5% (n = 4). For the same compound, the “Cell Viability 50 uM” value (U2OS cell line) was 79% ± 10% (n = 4).
With `O=c1nc(NO)ccn1[C@@H]1O[C@H](CO)[C@H](O)C1O` (stereo partly drawn) [drawing 76] the CC50 [1] was > 100 µg/mL, the EC50 (Norovirus GT1) was > 100 µg/mL and the CC50 (in vitro) was 36 µg/mL (≈ 139 µM). For the same compound, the EC50 (SARS Coronavirus Orbani) was < 0.1 µg/mL.
In the case of `CC(C)OC(=O)[C@H](C)NP(=O)(OC[C@H]1O[C@@H](n2ccc(NO)nc2=O)C(O)[C@H]1O)Oc1ccccc1` (stereo partly drawn) [drawing 98], the “Cell Viability 10 uM” value (VERO) is reported as 103% ± 14% (n = 4), the “Cell Viability 50 uM” value (VERO) is reported as 102% ± 36% (n = 4) and the inhibition at 10 µM (MERV) is reported as 29%. It also gave an inhibition at 50 µM (MERV) of 85%.
In the case of `CCCCCCCOC(=O)ONc1ccn([C@@H]2O[C@H](CO)[C@H](O)C2O)c(=O)n1` (stereo partly drawn) [drawing 82], the inhibition at 10 µM (Chikungunya virus) is reported as 72%, the inhibition at 50 µM (Chikungunya virus) is reported as 98% and the “Cell Viability 10 uM” value (U2OS cell line) is reported as 93% ± 4% (n = 4). The “Cell Viability 50 uM” value (U2OS cell line) was 78% ± 8% (n = 4).
With `O=c1nc(NO)ccn1[C@@H]1O[C@H](CO)[C@H](O)C1O` (stereo partly drawn) [drawing 96] the “Cell Viability 10 uM” value (VERO) was 75% ± 6% (n = 4), the “Cell Viability 50 uM” value (VERO) was 47% ± 3% (n = 4) and the inhibition at 10 µM (MERV) was 99%. The inhibition at 50 µM (MERV) was 100%.
`O=c1nc(NO)ccn1[C@@H]1O[C@H](CO)[C@H](O)C1O` (stereo partly drawn) [drawing 86] showed an EC50 (VEEV [2]) of 1.24 µM, an inhibition at 10 µM (VEEV [2]) of 100% and an inhibition at 50 µM (VEEV [2]) of 100%. The “Cell Viability 10 uM” value (HeLa) was 116% ± 24% (n = 4) and the “Cell Viability 50 uM” value (HeLa) was 61% ± 8% (n = 4).
With `CCCCCCCCC(=O)ONc1ccn([C@@H]2O[C@H](CO)[C@H](O)C2O)c(=O)n1` (stereo partly drawn) the CC50 (in vitro) was 36 µg/mL (≈ 90.1 µM) and the EC50 (SARS Coronavirus Orbani) was 0.19 µg/mL (≈ 0.476 µM).
With `CCCCCCCOC(=O)ONc1ccn([C@@H]2O[C@H](CO)[C@H](O)C2O)c(=O)n1` (stereo partly drawn) [drawing 97] the “Cell Viability 10 uM” value (VERO) was 84% ± 8% (n = 4), the “Cell Viability 50 uM” value (VERO) was 58% ± 2% (n = 4) and the inhibition at 10 µM (MERV) was 99%. It also gave an inhibition at 50 µM (MERV) of 99%.
With `O=c1nc(NO)c(F)cn1[C@@H]1O[C@H](CO)[C@H](O)C1O` (stereo partly drawn) [drawing 84] the inhibition at 10 µM (Chikungunya virus) was 8%, the inhibition at 50 µM (Chikungunya virus) was 51% and the “Cell Viability 10 uM” value (U2OS cell line) was 81% ± 4% (n = 4). The “Cell Viability 50 uM” value (U2OS cell line) was 53% ± 2% (n = 4).
With `CCCCCCCNC(=O)ONc1ccn([C@@H]2O[C@H](CO)[C@H](O)C2O)c(=O)n1` (stereo partly drawn) [drawing 100] the “Cell Viability 10 uM” value (VERO) was 118% ± 15% (n = 4), the “Cell Viability 50 uM” value (VERO) was 91% ± 39% (n = 4) and the inhibition at 10 µM (MERV) was 86%. The inhibition at 50 µM (MERV) was 98%.
`CCCCCCCNC(=O)ONc1ccn([C@@H]2O[C@H](CO)[C@H](O)C2O)c(=O)n1` (stereo partly drawn) [drawing 90] showed an EC50 (VEEV [2]) of 6 µM, an inhibition at 10 µM (VEEV [2]) of 93% and an inhibition at 50 µM (VEEV [2]) of 100%. The “Cell Viability 10 uM” value (HeLa) was 151% ± 16% (n = 4) and the “Cell Viability 50 uM” value (HeLa) was 126% ± 7% (n = 4).
In the case of `CCCCCCCOC(=O)ONc1ccn([C@@H]2O[C@H](CO)[C@H](O)C2O)c(=O)n1` (stereo partly drawn) [drawing 92], the inhibition at 10 µM (VEEV [3]) is reported as 94%, the inhibition at 50 µM (VEEV [3]) is reported as 100% and the “Cell Viability 10 uM” value (Astrocytes) is reported as 99% ± 9% (n = 3). For the same compound, the “Cell Viability 50 uM” value (Astrocytes) was 94% ± 10% (n = 3).
For `CC1(O)[C@@H](O)[C@@H](CO)O[C@H]1n1ccc(NO)nc1=O` (stereo partly drawn), the CC50 [1] was > 100 µg/mL, the EC50 (Norovirus GT1) was > 100 µg/mL and the CC50 (in vitro) was > 100 µg/mL. For the same compound, the EC50 (SARS Coronavirus Orbani) was > 100 µg/mL.
In the case of `O=c1nc(NO)c(F)cn1[C@@H]1O[C@H](CO)[C@H](O)C1O` (stereo partly drawn) [drawing 89], the inhibition at 10 µM (VEEV [2]) is reported as 61%, the inhibition at 50 µM (VEEV [2]) is reported as 98% and the “Cell Viability 10 uM” value (HeLa) is reported as 55% ± 4% (n = 4). For the same compound, the “Cell Viability 50 uM” value (HeLa) was 36% ± 2% (n = 4).
In the case of `CC(C)OC(=O)[C@H](C)NP(=O)(OC[C@H]1O[C@@H](n2ccc(NO)nc2=O)C(O)[C@H]1O)Oc1ccccc1` (stereo partly drawn) [drawing 83], the inhibition at 10 µM (Chikungunya virus) is reported as 3%, the inhibition at 50 µM (Chikungunya virus) is reported as 36% and the “Cell Viability 10 uM” value (U2OS cell line) is reported as 99% ± 6% (n = 4). The “Cell Viability 50 uM” value (U2OS cell line) was 99% ± 8% (n = 4).
For `CONc1ccn([C@@H]2O[C@H](CO)[C@H](O)C2O)c(=O)n1` (stereo partly drawn), the CC50 (in vitro) was > 100 µg/mL and the EC50 (SARS Coronavirus Orbani) was > 100 µg/mL.
In the case of `CCCCCCCNC(=O)ONc1ccn([C@@H]2O[C@H](CO)[C@H](O)C2O)c(=O)n1` (stereo partly drawn) [drawing 85], the inhibition at 10 µM (Chikungunya virus) is reported as 14%, the inhibition at 50 µM (Chikungunya virus) is reported as 70% and the “Cell Viability 10 uM” value (U2OS cell line) is reported as 105% ± 2% (n = 4). The “Cell Viability 50 uM” value (U2OS cell line) was 96% ± 11% (n = 4).
With `CCCCCCCNC(=O)ONc1ccn([C@@H]2O[C@H](CO)[C@H](O)C2O)c(=O)n1` (stereo partly drawn) [drawing 95] the inhibition at 10 µM (VEEV [3]) was 51%, the inhibition at 50 µM (VEEV [3]) was 37% and the “Cell Viability 10 uM” value (Astrocytes) was 98% ± 12% (n = 3). For the same compound, the “Cell Viability 50 uM” value (Astrocytes) was 85% ± 19% (n = 3).
With `CCCCCCCOC(=O)ONc1ccn([C@@H]2O[C@H](CO)[C@H](O)C2O)c(=O)n1` (stereo partly drawn) [drawing 87] the EC50 (VEEV [2]) was 0.57 µM, the inhibition at 10 µM (VEEV [2]) was 100% and the inhibition at 50 µM (VEEV [2]) was 100%. For the same compound, the “Cell Viability 10 uM” value (HeLa) was 116% ± 20% (n = 4) and the “Cell Viability 50 uM” value (HeLa) was 85% ± 8% (n = 4).
For `CC(C)OC(=O)[C@H](C)NP(=O)(OC[C@H]1O[C@@H](n2ccc(NO)nc2=O)C(O)[C@H]1O)Oc1ccccc1` (stereo partly drawn) [drawing 93], the inhibition at 10 µM (VEEV [3]) was 49%, the inhibition at 50 µM (VEEV [3]) was 96% and the “Cell Viability 10 uM” value (Astrocytes) was 102% ± 16% (n = 3). For the same compound, the “Cell Viability 50 uM” value (Astrocytes) was 100% ± 17% (n = 3).
With `O=c1nc(NO)ccn1[C@@H]1O[C@H](CO)[C@H](O)C1O` (stereo partly drawn) [drawing 91] the inhibition at 10 µM (VEEV [3]) was 99%, the inhibition at 50 µM (VEEV [3]) was 100% and the “Cell Viability 10 uM” value (Astrocytes) was 98% ± 12% (n = 3). The “Cell Viability 50 uM” value (Astrocytes) was 86% ± 5% (n = 3).
With `CCCCCCCOC(=O)ONc1ccn([C@@H]2O[C@H](CO)[C@H](O)C2O)c(=O)n1` (stereo partly drawn) [drawing 78] the CC50 (in vitro) was > 100 µg/mL and the EC50 (SARS Coronavirus Orbani) was 0.28 µg/mL (≈ 0.698 µM).
For `CC(C)OC(=O)[C@H](C)NP(=O)(OC[C@H]1O[C@@H](n2ccc(NO)nc2=O)C(O)[C@H]1O)Oc1ccccc1` (stereo partly drawn) [drawing 88], the EC50 (VEEV [2]) was 16.2 µM, the inhibition at 10 µM (VEEV [2]) was 73% and the inhibition at 50 µM (VEEV [2]) was 100%. The “Cell Viability 10 uM” value (HeLa) was 137% ± 16% (n = 4) and the “Cell Viability 50 uM” value (HeLa) was 134% ± 16% (n = 4).
